# Key:
# human DGKα = target: T1, human DGKα (Homo sapiens, UniProt P23743); assay: DGKα Biochemical Activity Assay (ADP-Glo);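 note: recombinant enzyme converting diacylglycerol in lipid micelles with ATP, ADP formed detected by luminescence, IC50 from a four-parameter nonlinear fit, geometric mean across experiments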
# T1 construct: purchased Carna Biosciences'; inferred from the same paragraph's 'obtained from Carna Biosciences')
# [1] = tested on: Jurkat NFκB-luciferase cells; assay: Jurkat NFκB-Luciferase Assay; type: cell-based; settings: Homo sapiens; Jurkat NFκB-luciferase cells activated with anti-CD3 antibody (OKT3), 2.5 hrs at 37° C., One-Glo Ex; geometric mean; read-out: DGK NFKb Luciferase EC50;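 note: bioluminescence read-out normalized to DMSO basal activation and to maximum enhancement at 1 µM compound, rising signal indicating stronger T-cell activation through DGKα inhibition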
# Experimental: The activity of compounds was tested in a cell based NFκB reporter assay. Jurkat cells that are stably expressing a luciferase reporter construct under the transcriptional control of a NFκB reporter element were activated with an anti-CD3 antibody and luciferase levels were measured with a bioluminescence readout.
# The day after, the excess antibody was washed out five times with 100 ul/well of assay medium (RPMI supplemented with 10% fetal bovine serum) using a Biotek EL406 instrument and leaving 20 µl of residual volume in each well. Jurkat NFκB-luciferase cells (Promega #) were harvested and diluted to 1 million cells/ml in assay medium. Sixty nanoliters of test compound dissolved in DMSO at various concentrations were dispensed into 384-well v-bottom polypropylene plates (Greiner) using a Labcyte Echo instrument. Thirty microliters of medium containing the Jurkat NFκB-luciferase cells were then dispensed using a Biotek MicroFlo instrument in each well of the compound-containing plate. The medium/cell/compound mixture was mixed with a Bravo instrument and 20 ul/well of the mixture was transferred to the anti-CD3-coated plate. The assay mixture was then incubated for 2.5 hrs at 37° C. followed by equilibration at 25° C. for 30 min. Forty microliters of One-Glo Ex (Promega) was then added to the assay mixture and luciferase activity was read on a Envision plate reader 7 minutes later.
# Bioluminescence data were normalized based on maximum enhancement (1 micromolar of compound) and on basal activation (DMSO) controls. Least squares curve fittings were performed using a four-parameter variable slope nonlinear regression model. […] EC50 values from multiple experiments were averaged by geometric mean and the standard deviation was calculated.
# T1 sequence (P23743 whole entry): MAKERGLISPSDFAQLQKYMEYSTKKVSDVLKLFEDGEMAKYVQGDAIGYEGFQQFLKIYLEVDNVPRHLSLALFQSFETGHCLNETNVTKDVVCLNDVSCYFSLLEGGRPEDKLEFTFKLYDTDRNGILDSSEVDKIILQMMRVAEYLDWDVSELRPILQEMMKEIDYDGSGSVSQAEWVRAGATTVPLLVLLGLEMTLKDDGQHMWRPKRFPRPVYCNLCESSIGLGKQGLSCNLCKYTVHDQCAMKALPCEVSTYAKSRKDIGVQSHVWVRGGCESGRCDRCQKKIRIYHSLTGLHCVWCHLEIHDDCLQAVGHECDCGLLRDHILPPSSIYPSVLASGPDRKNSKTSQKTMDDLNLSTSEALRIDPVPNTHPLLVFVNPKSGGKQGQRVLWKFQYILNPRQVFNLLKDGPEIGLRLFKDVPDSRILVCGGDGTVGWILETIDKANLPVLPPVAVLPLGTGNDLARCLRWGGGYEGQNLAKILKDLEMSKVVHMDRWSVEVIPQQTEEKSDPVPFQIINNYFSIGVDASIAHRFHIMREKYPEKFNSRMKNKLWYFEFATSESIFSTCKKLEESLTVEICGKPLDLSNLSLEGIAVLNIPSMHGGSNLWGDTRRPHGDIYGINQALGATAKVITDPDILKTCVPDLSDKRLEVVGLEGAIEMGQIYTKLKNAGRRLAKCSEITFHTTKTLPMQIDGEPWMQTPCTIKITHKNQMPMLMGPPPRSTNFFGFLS
Structure (SMILES),IC50 (human DGKα) [nM],EC50 [1] [nM]
"[2H]C([2H])([2H])n1c(=O)nc(N(CC(F)F)c2cc(F)cc(C#CC3(C(F)(F)F)CC3)c2)c2c(F)cccc21 [Example 22, 4-[N-(2,2-difluoroethyl)-3-fluoro-5-[2-[1-(trifluoromethyl)cyclopropyl]ethynyl]anilino]-5-fluoro-1-(trideuteriomethyl)quinazolin-2-one]",55.6,1.61
"O=c1nc(N(CC(F)(F)F)c2cccc(C#CC3(C(F)(F)F)CC3)c2)c2ccc(Cl)cc2[nH]1 [Example 24, 7-chloro-4-[N-(2,2,2-trifluoroethyl)-3-[2-[1-(trifluoromethyl)cyclopropyl]ethynyl]anilino]-1H-quinazolin-2-one]",176,2.38
"[2H]C([2H])([2H])n1c(=O)nc(N(CC(F)(F)F)c2cccc(C#CC3(C(F)(F)F)CC3)c2)c2ccc(Cl)cc21 [Example 25, 7-chloro-1-(trideuteriomethyl)-4-[N-(2,2,2-trifluoroethyl)-3-[2-[1-(trifluoromethyl)cyclopropyl]ethynyl]anilino]quinazolin-2-one]",58.8,0.405
"O=c1nc(N(CC(F)F)c2cc(F)cc(C#CC3(C(F)(F)F)CC3)c2)c2ccc(Cl)cc2[nH]1 [Example 26, 7-chloro-4-[N-(2,2-difluoroethyl)-3-fluoro-5-[2-[1-(trifluoromethyl)cyclopropyl]ethynyl]anilino]-1H-quinazolin-2-one]",314,1.07
"O=c1nc(N(CC(F)(F)F)c2cc(F)cc(C#CC3(C(F)(F)F)CC3)c2)c2cc(F)ccc2[nH]1 [Example 27, 6-fluoro-4-[3-fluoro-N-(2,2,2-trifluoroethyl)-5-[2-[1-(trifluoromethyl)cyclopropyl]ethynyl]anilino]-1H-quinazolin-2-one]",97.3,3.27
"Cn1c(=O)nc(N(CC(F)F)c2cc(F)cc(C#CC3(C(F)(F)F)CC3)c2)c2ccc(Cl)cc21 [Example 28, 7-chloro-4-[N-(2,2-difluoroethyl)-3-fluoro-5-[2-[1-(trifluoromethyl)cyclopropyl]ethynyl]anilino]-1-methyl-quinazolin-2-one]",169,1.15
"O=c1nc(N(CC(F)(F)F)c2cc(F)cc(C#CC3(C(F)(F)F)CC3)c2)c2ccc(Cl)cc2[nH]1 [Example 29, 7-chloro-4-[3-fluoro-N-(2,2,2-trifluoroethyl)-5-[2-[1-(trifluoromethyl)cyclopropyl]ethynyl]anilino]-1H-quinazolin-2-one]",849,1.88
"Cn1c(=O)nc(N(CC(F)(F)F)c2cc(F)cc(C#CC3(C(F)(F)F)CC3)c2)c2cc(F)ccc21 [Example 30, 6-fluoro-4-[3-fluoro-N-(2,2,2-trifluoroethyl)-5-[2-[1-(trifluoromethyl)cyclopropyl]ethynyl]anilino]-1-methyl-quinazolin-2-one]",27.1,1.94
"Cn1c(=O)nc(N(CC(F)(F)F)c2cc(F)cc(C#CC3(C(F)(F)F)CC3)c2)c2c(F)cccc21 [Example 31, 5-fluoro-4-[3-fluoro-N-(2,2,2-trifluoroethyl)-5-[2-[1-(trifluoromethyl)cyclopropyl]ethynyl]anilino]-1-methyl-quinazolin-2-one]",45.7,2.89
"Cn1c(=O)nc(N(CC(F)(F)F)c2cc(F)cc(C#CC3(C(F)(F)F)CC3)c2)c2ccc(Cl)cc21 [Example 32, 7-chloro-4-[3-fluoro-N-(2,2,2-trifluoroethyl)-5-[2-[1-(trifluoromethyl)cyclopropyl]ethynyl]anilino]-1-methyl-quinazolin-2-one]",123,1.02
"O=c1nc(N(CC(F)F)c2cc(F)cc(C#CC3(C(F)(F)F)CC3)c2)c2ccc(Cl)cc2n1CCO [Example 33, 7-chloro-4-[N-(2,2-difluoroethyl)-3-fluoro-5-[2-[1-(trifluoromethyl)cyclopropyl]ethynyl]anilino]-1-(2-hydroxyethyl)quinazolin-2-one]",284,3.65
"CC(C)(O)C#Cc1cc(F)cc(N(CC(F)F)c2nc(=O)[nH]c3cccc(F)c23)c1 [Example 34, 4-[N-(2,2-difluoroethyl)-3-fluoro-5-(3-hydroxy-3-methyl-but-1-ynyl)anilino]-5-fluoro-1H-quinazolin-2-one]",32.8,13.4
"O=c1nc(N(CC(F)F)c2cc(F)cc(C#CC3(C(F)(F)F)CC3)c2)c2c(F)c(F)ccc2[nH]1 [Example 35, 4-[N-(2,2-difluoroethyl)-3-fluoro-5-[2-[1-(trifluoromethyl)cyclopropyl]ethynyl]anilino]-5,6-difluoro-1H-quinazolin-2-one]",159,0.999
"CCn1c(=O)nc(N(CC(F)F)c2cc(F)cc(C#CC3(C(F)(F)F)CC3)c2)c2c(F)cccc21 [Example 36, 4-[N-(2,2-difluoroethyl)-3-fluoro-5-[2-[1-(trifluoromethyl)cyclopropyl]ethynyl]anilino]-1-ethyl-5-fluoro-quinazolin-2-one]",184,21.1
"CCn1c(=O)nc(N(CC(F)F)c2cc(F)cc(C#CC(C)(C)O)c2)c2c(F)cccc21 [Example 37, 4-[N-(2,2-difluoroethyl)-3-fluoro-5-(3-hydroxy-3-methyl-but-1-ynyl)anilino]-1-ethyl-5-fluoro-quinazolin-2-one]",54.3,39.6
"[2H]C([2H])([2H])n1c(=O)nc(N(CC(F)F)c2cc(F)cc(C#CC(C)(C)O)c2)c2c(F)cccc21 [Example 38, 4-[N-(2,2-difluoroethyl)-3-fluoro-5-(3-hydroxy-3-methyl-but-1-ynyl)anilino]-5-fluoro-1-(trideuteriomethyl)quinazolin-2-one]",16,11.1
"O=c1nc(N(CC(F)F)c2cc(F)cc(-c3cnc(C4CC4)cn3)c2)c2c(F)c(F)ccc2[nH]1 [Example 39, 4-[3-(5-cyclopropylpyrazin-2-yl)-N-(2,2-difluoroethyl)-5-fluoro-anilino]-5,6-difluoro-1H-quinazolin-2-one]",13.4,0.705
"O=c1nc(N2CCCc3c(C#CC4(C(F)(F)F)CC4)cccc32)c2c(F)c(F)ccc2[nH]1 [Example 40, 5,6-difluoro-4-[5-[2-[1-(trifluoromethyl)cyclopropyl]ethynyl]-3,4-dihydro-2H-quinolin-1-yl]-1H-quinazolin-2-one]",13.4,0.399
"[2H]C([2H])([2H])n1c(=O)nc(N(CC(F)F)c2cc(F)cc(C#CC3(C(F)(F)F)CC3)c2)c2c(F)c(F)ccc21 [Example 41, 4-[N-(2,2-difluoroethyl)-3-fluoro-5-[2-[1-(trifluoromethyl)cyclopropyl]ethynyl]anilino]-5,6-difluoro-1-(trideuteriomethyl)quinazolin-2-one]",9.63,1
"[2H]C([2H])([2H])n1c(=O)nc(N2CCCc3c(C#CC4(C(F)(F)F)CC4)cccc32)c2c(F)c(F)ccc21 [Example 42, 5,6-difluoro-1-(trideuteriomethyl)-4-[5-[2-[1-(trifluoromethyl)cyclopropyl]ethynyl]-3,4-dihydro-2H-quinolin-1-yl]quinazolin-2-one]",9.48,0.311
"CC(C)(O)C#Cc1cccc2c1CCCN2c1nc(=O)[nH]c2cccc(F)c12 [Example 43, 5-fluoro-4-[5-(3-hydroxy-3-methyl-but-1-ynyl)-3,4-dihydro-2H-quinolin-1-yl]-1H-quinazolin-2-one]",1.84,2.53
"[2H]C([2H])([2H])n1c(=O)nc(N(CC(F)F)c2cc(F)cc(-c3cnc(C4CC4)cn3)c2)c2c(F)cccc21 [Example 44, 4-[3-(5-cyclopropylpyrazin-2-yl)-N-(2,2-difluoroethyl)-5-fluoro-anilino]-5-fluoro-1-(trideuteriomethyl)quinazolin-2-one]",11.2,1.43
"O=c1nc(N(CC(F)F)c2cncc(C#CC3(C(F)(F)F)CC3)c2)c2cc(F)ccc2[nH]1 [Example 45, 4-((2,2-difluoroethyl)(5-((1-(trifluoromethyl)cyclopropyl)ethynyl)pyridin-3-yl)amino)-6-fluoroquinazolin-2(1H)-one]",67.4,6.18
"O=c1nc(N(CC(F)F)c2cccc(C#CC3(C(F)(F)F)CC3)n2)c2cc(F)ccc2[nH]1 [Example 46, 4-((2,2-difluoroethyl)(6-((1-(trifluoromethyl)cyclopropyl)ethynyl)pyridin-2-yl)amino)-6-fluoroquinazolin-2(1H)-one]",86.9,15.3
"Cn1c(=O)nc(N(CC(F)F)c2cccc(C#CC3(C(F)(F)F)CC3)n2)c2cc(F)ccc21 [Example 47, 4-((2,2-difluoroethyl)(6-((1-(trifluoromethyl)cyclopropyl)ethynyl)pyridin-2-yl)amino)-6-fluoro-1-methylquinazolin-2(1H)-one]",15,1.37
"O=c1nc(N(CC(F)F)c2cccc(C#CC3(C(F)(F)F)CC3)c2F)c2cc(F)ccc2[nH]1 [Example 48, 4-[N-(2,2-difluoroethyl)-2-fluoro-3-[2-[1-(trifluoromethyl)cyclopropyl]ethynyl]anilino]-6-fluoro-1H-quinazolin-2-one]",62.8,5.29
"CC(C)(C#Cc1cccc(N(CC(F)F)c2nc(=O)[nH]c3ccc(F)cc23)c1F)C(F)(F)F [Example 49, 4-[N-(2,2-difluoroethyl)-2-fluoro-3-(4,4,4-trifluoro-3,3-dimethyl-but-1-ynyl)anilino]-6-fluoro-1H-quinazolin-2-one]",296,5.3
"O=c1nc(N(CC(F)F)c2cc(F)cc(C#CC3(C(F)(F)F)CC3)c2)c2cc(F)ccc2[nH]1 [Example 50, 4-[N-(2,2-difluoroethyl)-3-fluoro-5-[2-[1-(trifluoromethyl)cyclopropyl]ethynyl]anilino]-6-fluoro-1H-quinazolin-2-one]",213,1.81

# Reference: patent publication US11932634B2 (Gilead Sciences, Inc., priority 2021, dated 2024)
